Reference: US6352976B1, “Selective inhibitors of MMP-12” (Aventis Pharmaceuticals Inc., priority 1998, dated 2002)
pKi: −log10 of the molar value. Structures can show the parent of a compound that is named as a salt.

How the values were obtained:
MMP-3 (Stromelysin-1) = biological target: T1, MMP-3 (Stromelysin-1) (Homo sapiens, UniProt P08254); test: Determination of inhibition constant (Ki) for MMP-3, fluorogenic substrate; assay type: biochemical; details: pH 7.6
T1 construct: The active MMP-3 was obtained by treatment of proMMP-3 with trypsin; endogenous in cells; host or cells: human rheumatoid synovial fibroblasts stimulated with macrophage-conditioned medium; secreted proenzyme purified from culture medium
T1 sequence (P08254 100-477): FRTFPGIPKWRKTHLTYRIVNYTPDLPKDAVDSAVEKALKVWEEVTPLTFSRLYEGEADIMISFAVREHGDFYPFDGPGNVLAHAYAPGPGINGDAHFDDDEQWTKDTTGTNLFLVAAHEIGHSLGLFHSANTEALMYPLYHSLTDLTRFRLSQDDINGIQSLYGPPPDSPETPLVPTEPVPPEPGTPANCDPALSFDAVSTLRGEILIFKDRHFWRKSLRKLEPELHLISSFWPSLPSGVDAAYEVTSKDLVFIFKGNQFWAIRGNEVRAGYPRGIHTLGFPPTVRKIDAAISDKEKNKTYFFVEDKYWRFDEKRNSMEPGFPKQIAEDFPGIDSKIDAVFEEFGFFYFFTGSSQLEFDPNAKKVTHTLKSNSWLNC
Procedure: ProMMP-3 (EC3.4.24.17; Stromelysin-1) was purified from culture medium of human rheumatoid synovial fibroblasts stimulated with macrophage-conditioned medium according to Okada, Y. et al., J. Biol. Chem. 261, 14245-14255 (1986). The active MMP-3 was obtained by treatment of proMMP-3 with trypsin (5 μg/mL) at 37° C. for 30 minutes, followed by addition of soybean trypsin inhibitor (50 μg/mL). Aliquots of the activated MMP-3 were stored at −20° C.
The activated MMP-3 is assayed using a fluorogenic substrate, Mca-Pro-Leu-Gly-Leu-Dpa-Ala-Arg-NH2, Knight, C. G. et al., FEBS Lett. 296, 263-266 (1992), at 37° C. in an assay buffer containing 50 mM Tris, pH 7.6, 0.2 M sodium chloride, 50 mM calcium chloride, and 0.02% Brij-35. The increase in fluorescence due to cleavage of Gly-Leu peptide bond by MMP-3 was monitored with Perkin-Elmer LS50B Fluorimeter (λex 328 nm, λem 393 nm, excitation slit 2.5, emission slit 10). Substrate and inhibitor stock solutions were made in DMF and 0.1% HCl-DMF, respectively. For determination of Ki values for MMP-3 inhibitors, a series of intermediate inhibitor solutions were prepared in 0.1% HCl-DMF and 1 or 2 μL of the diluted inhibitor solution was mixed with 1 μL of 2 mM substrate solution in DMF in a quartz cuvette containing 2 mL of assay buffer. The enzyme (10 μL of 0.2 μM MMP-3 dilution in assay buffer) was added at the last to start the reaction. For routine measurement of a Ki value for a reversible, competitive inhibitor, the initial rates in the presence of at least four inhibitor concentrations (two concentrations above Ki and two concentrations below Ki) were measured using [S]=1 μM (<<Km) and [MMP-3]=1 nM. Under these conditions, the measured Ki, app is close to true Ki.
The Ki for a competitive inhibitor is calculated using: v0/vi=(1+[I]/Ki, app) and Ki=Ki, app/(1+[S]/Km), where v0 is the initial rate in the absence of inhibitor, vi is the initial rate in the presence of inhibitor at the concentration of [I], [S] is the substrate concentration, and Km is the Michaelis constant. If slow binding is observed (i.e. if the approach to the binding equilibrium is slow), the final steady-state rate rather than the initial rate is taken as vi.

MMP-2 = biological target: T2, MMP-2 (Homo sapiens, UniProt P08253); test: Determination of inhibition constant (Ki) for MMP-2, fluorogenic substrate; assay type: biochemical; details: pH 7.6
T2 construct: made in house; host or cells: Pichia pastoris (strains KM71 / SMD1168, clone 24S; vector pHIL-D2)
T2 sequence (P08253 110-660): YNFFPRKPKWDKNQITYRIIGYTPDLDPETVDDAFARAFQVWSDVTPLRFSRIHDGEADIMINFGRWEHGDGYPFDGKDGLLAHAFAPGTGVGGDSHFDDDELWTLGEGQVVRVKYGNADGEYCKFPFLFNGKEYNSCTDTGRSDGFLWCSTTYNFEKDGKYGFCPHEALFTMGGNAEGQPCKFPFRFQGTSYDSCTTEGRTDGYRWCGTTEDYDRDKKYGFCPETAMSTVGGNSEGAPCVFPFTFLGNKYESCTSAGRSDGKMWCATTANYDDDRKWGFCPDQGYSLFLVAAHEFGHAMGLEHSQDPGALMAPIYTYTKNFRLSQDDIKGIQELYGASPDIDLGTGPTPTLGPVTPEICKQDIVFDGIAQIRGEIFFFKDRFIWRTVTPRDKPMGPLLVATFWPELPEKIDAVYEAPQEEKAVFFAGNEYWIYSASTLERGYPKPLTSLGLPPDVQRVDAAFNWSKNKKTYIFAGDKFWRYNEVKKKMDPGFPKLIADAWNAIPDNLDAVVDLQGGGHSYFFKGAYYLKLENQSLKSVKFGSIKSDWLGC
Description: Recombinant MMP-2 was purified from the fermentation broth of yeast Pichia pastoris that carries the integrated MMP-2 gene into its chromosome. In brief, the full-length cDNA for MMP-2 was obtained by reverse transcription of RNA from human melanoma A375M cell line by the reverse transcriptase polymerase chain reaction (RT-PCR) using sequence specific oligonucleotides. The nucleotide sequence was confirmed by Taq cycle sequencing. The cDNA was ligated into the Pichia pastoris expression vector pHIL-D2 in such a way that the expression of pro-MMP-2 is under the control of the methanol inducible alcohol oxidase promoter. The expression construct was digested with either SalI or NsiI and used to transform the Pichia pastoris strains KM71 and SMD1168. A large-scale culture of a selected clone designated 24S was performed in a high cell density fermentor and the recombinant MMP-2 was purified from the culture supernatant by gelatin-sepharose 4B (Pharmacia). The enzyme is sufficiently pure at this stage for routine measurement of inhibition. If desired, however, the enzyme may be further purified by AcA 44 gel filtration (Spectra).
The active MMP-2 was obtained by activation of proMMP-2 at 37° C. for 1 h with 4-aminophenylmercuric acetate which was then removed by a Sephadex G-50 spin column. The enzyme is assayed using a fluorogenic substrate, Mca-Pro-Leu-Gly-Leu-Dpa-Ala-Arg-NH2, at 37° C. in 2.0 mL of assay buffer containing 50 mM Tris, pH 7.6, 0.2 M sodium chloride, 50 mM calcium chloride, 0.02% Brij-35, and 50 μM β-mercaptoethanol. The increase in fluorescence is monitored (λex 328 nm, λem 393 nm). Substrate and inhibitor stock solutions are made in DMF. The enzyme is added at the last to start the reaction. For routine measurement of a Ki value for a reversible, competitive inhibitor, the initial rates in the presence of at least four inhibitor concentrations (two inhibitor concentrations above Ki and two below Ki) are measured using [S]=1 μM (<<Km) and [MMP-2]=0.4 nM. Under these conditions, the measured Ki, app is close to true Ki.

[1] = Table 1, Mca-Pro-Leu-Gly-Leu-Dpa-Ala-Arg-NH2, 37° C.

pKi (MMP-3 (Stromelysin-1); [1]) | pKi (MMP-2; [1]) | pKi (MMP-3 (Stromelysin-1); Table 2 (comparative), method of Example C, 37° C.) | pKi (MMP-2; Table 2 (comparative), method of Example B, 37° C.) | SMILES
5.85 | 6.11 |  |  | CC(C)C[C@H](NC(=O)[C@@H](S)C(C)C)C(=O)N[C@@H](Cc1ccccc1)C(=O)O [Example 3, (S)-2-Mercapto-3-methylbutyroyl-(L)-leucyl-(L)-phenylalanine]
5.81 | 5.76 |  |  | CC(C)[C@H](S)C(=O)N[C@@H](CCCCN)C(=O)N[C@@H](Cc1ccccc1)C(=O)O [Example 5, (S)-2-Mercapto-3-methylbutyroyl-(L)-lysyl-(L)-phenylalanine trifluoroacetic acid salt]
 |  | 8.00 | 8.48 | CNC(=O)[C@H](Cc1ccccc1)NC(=O)[C@H](CCc1ccccc1)NC(=O)C(S)C(C)C (stereo partly drawn) [Example 7, (S)-2-Mercapto-3-methylbutyroyl-(L)-homo-phenylalanyl-(L)-phenylalanine N-methyl amide, reference compound]
6.35 | 6.10 |  |  | CSCC[C@H](NC(=O)[C@@H](S)C(C)C)C(=O)N[C@@H](Cc1ccccc1)C(=O)O [Example 4, (S)-2-Mercapto-3-methylbutyroyl-(L)-methionyl-(L)-phenylalanine]
